Laboratory results taken from US20230338316A1, “ABBAPOLINS AS INHIBITORS AND DEGRADERS OF POLO-LIKE KINASES” (UNIVERSITY OF SOUTH CAROLINA, priority 2022, published 2023).

What was measured:
PLK1 [1] = molecular target: T1, PLK1 (Homo sapiens, UniProt P53350); experiment: Cellular thermal shift assay (CETSA); type: cell-based; parameters: endogenous in cells; host or cells: PC3 prostate cancer cells; settings: intracellular PLK1
Method: Cellular thermal shift assay (CETSA) was performed with PC3 cells cultured in RPMI medium supplemented with 10% FBS. For an initial determination of the melting profile of PLK1 AND PLK3, cells dispensed into 96-well PCR plates in the above medium (6000 cells/well in 50 μL) were subjected to temperature gradient (38-60° C.) for 10 min. […] Centrifugation was performed at 14000 rpm to sediment the denatured protein content. Supernatant was collected and subjected to SDS-PAGE, and immunodetection was performed using anti-PLK1 and anti-PLK3 antibodies. PLK1 and PLK3 bands were quantified on a LI-COR C-Digit Blot Scanner, and Tagg and Tagg values were calculated for both proteins. In subsequent experiments, cells were treated at increasing doses (3.0, 1.0, 0.3, 0.1, 0.03 μM) of inhibitors together with DMSO control, for 2 h. Cells were then subjected to heat shock at Tagg for 10 min, and unstable protein was removed by centrifugation step. Following immuno-blotting, bands of stable PLK1 and PLK3 were quantified, normalized to loading control and plotted using GraphPad Prism software. EC50 values for inhibitors were calculated. […] The EC50 of the peptides were determined from the curve fit of the dose response.

MOLT-4 = experiment: Single dose cell viability assay, MOLT-4; type: cell-based; settings: MOLT-4 (Leukemia), single dose 25 μM
Method: (§1) Lead abbapolin compounds were tested in multiple cancer cell lines, including non-small cell lung cancer (NSCLC) cells, melanoma cells, colon cancer cells, central nervous system (CNS) cancer cells, prostate cancer cells, renal cancer cells, and breast cancer cells. Each of these cancer cells lines were sensitive to the lead abbapolin compounds in a cell viability assay, including 6184 (Table 3), 6277 (Table 4), 6279 (Table 5), 6355 (Table 6), 6359 (Table 7), 6369 (Table 8), and 6421 (Table 9).

LOX IMVI = experiment: Single dose cell viability assay, LOX IMVI; type: cell-based; settings: single dose 25 μM, 48 hours
Method: as §1

[2] = system: SH-SY5Y neuroblastoma cells overexpressing PLK1; experiment: Cell viability assay in neuroblastoma cells; type: cell-based; settings: Homo sapiens, SH-SY5Y
Method: (§2) Abbapolin compounds activity was evaluated in neuroblastoma cells. […] Further, abbapolins induced PLK1 degradation in SH-SY5Y cells (FIG. 14-16).

PLK3 PBD (335-646) = molecular target: T2, PLK3 PBD (335-646) (Homo sapiens, UniProt Q9H4B4); experiment: Fluorescence polarization assay, PLK3 PBD; type: binding
T2 construct: PLK1 PBD (367-603) and PLK3 PBD (335-646) proteins were obtained from BPS Biosciences Inc; purchased BPS Biosciences Inc. (San Diego, CA)
T2 sequence (Q9H4B4 335-646): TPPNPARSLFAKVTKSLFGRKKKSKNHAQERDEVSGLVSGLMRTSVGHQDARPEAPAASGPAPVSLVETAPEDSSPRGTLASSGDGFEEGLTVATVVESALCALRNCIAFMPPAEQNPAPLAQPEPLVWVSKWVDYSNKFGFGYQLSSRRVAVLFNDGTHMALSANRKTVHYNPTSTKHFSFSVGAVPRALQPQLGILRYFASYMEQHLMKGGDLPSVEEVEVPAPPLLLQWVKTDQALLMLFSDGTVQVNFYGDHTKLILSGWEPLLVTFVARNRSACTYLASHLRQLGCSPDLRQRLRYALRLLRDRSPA
Method: (§3) Materials were dissolved in DMSO (10 mM) and diluted from 10 nM to 600 μM (maximum of 6% DMSO tolerance in the assay). PLK1 PBD (367-603) and PLK3 PBD (335-646) proteins were obtained from BPS Biosciences Inc. (San Diego, CA); 17 ng PLK1 and 156 ng PLK3 were used per reaction. The fluorescein-tracer phospho-peptides (MAGPMQS[pT]PLNGAKK (SEQ ID NO: 1) for PLK1, and GPLATS[pT]PKNG (SEQ ID NO: 2) for PLK3) were used at a final concentration of 10 nM. Incubation was carried out at room temperature for 45 minutes. Fluorescence was measured using a DTX 880 plate reader and Multimode Analysis software (Beckman Coulter, Brea, CA). The polarization values in millipolarization (mP) units were measured at an excitation wavelength of 488 nm and an emission wavelength of 535 nm. Each data point was performed in triplicate for every experiment, and experiments were performed at least three times. An IC50 value for each compound was calculated from linear regression analysis of the plots.

CCRF-CEM = experiment: Single dose cell viability assay, CCRF-CEM; type: cell-based; settings: CCRF-CEM (Leukemia), single dose 25 μM
Method: as §1

RPMI-8226 = experiment: Single dose cell viability assay, RPMI-8226; type: cell-based; settings: RPMI-8226 (Leukemia), single dose 25 μM
Method: as §1

K-562 = experiment: Single dose cell viability assay, K-562; type: cell-based; settings: K-562 (Leukemia), single dose 25 μM
Method: as §1

A549/ATCC = experiment: Single dose cell viability assay, A549/ATCC; type: cell-based; settings: A549/ATCC (NSCLC), single dose 25 μM
Method: as §1

PLK1 PBD (367-603) = molecular target: T3, PLK1 PBD (367-603) (Homo sapiens, UniProt P53350); experiment: Fluorescence polarization assay, PLK1 PBD; type: binding; settings: fluorescence polarization; read-out: PLK1 PBD IC50
T3 construct: PLK1 PBD (367-603) and PLK3 PBD (335-646) proteins were obtained from BPS Biosciences Inc; purchased BPS Biosciences Inc. (San Diego, CA)
T3 sequence (P53350 367-603): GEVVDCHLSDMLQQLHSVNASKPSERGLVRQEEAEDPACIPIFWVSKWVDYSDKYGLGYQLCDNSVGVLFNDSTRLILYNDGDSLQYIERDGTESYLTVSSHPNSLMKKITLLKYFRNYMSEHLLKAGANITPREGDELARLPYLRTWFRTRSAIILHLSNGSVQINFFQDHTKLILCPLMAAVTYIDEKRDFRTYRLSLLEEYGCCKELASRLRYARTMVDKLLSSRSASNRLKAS
Method: as §3

HCT-15 = experiment: Single dose cell viability assay, HCT-15; type: cell-based; settings: HCT-15 (Colon), single dose 25 μM
Method: as §1

PLK1 [3] = molecular target: T1, PLK1; experiment: PLK1 degradation in SH-SY5Y cells; type: cell-based; parameters: endogenous in cells
Method: as §2

NCI-H460 = experiment: Single dose cell viability assay, NCI-H460; type: cell-based; settings: NCI-H460 (NSCLC), single dose 25 μM
Method: as §1

HCT-116 = experiment: Single dose cell viability assay, HCT-116; type: cell-based; settings: HCT-116 (Colon), single dose 25 μM
Method: as §1

SR = experiment: Single dose cell viability assay, SR; type: cell-based; settings: SR (Leukemia), single dose 25 μM
Method: as §1

PLK1 [4] = molecular target: T1, PLK1; experiment: PLK1 degradation in HeLa cells; type: cell-based; parameters: endogenous in cells; settings: HeLa cell line, 24, 48 and 72 hours
Method: (§4) For example, PC3 cells were treated with varying dosages of abbapolin 6369, and percent of PLK1 degradation was measured at 24 hours (FIGS. 8A-8B). HeLa cells were treated with 25 μM abbapolin 6369, and time points shown in the assay were 24 hours, 48 hours, and 72 hours (FIGS. 9A-9B). PC3 cells were treated with varying dosages of abbapolin 6329, and percent of PLK1 degradation was measured at 24 hours (FIGS. […]). HeLa cells were treated with varying dosages of abbapolin 6329, and time points shown in the assay were 24 hours, 48 hours, and 72 hours (FIGS. 11A-11B).

PLK1 [5] = molecular target: T1, PLK1; experiment: PLK1 degradation in PC3 cells; type: cell-based; parameters: endogenous in cells; host or cells: PC3 prostate cancer cells; settings: PC3 cell line, 24 hours
Method: as §4

[6] = system: PC3 prostate cancer cells; experiment: MTT cell viability assay, PC3; type: cell-based; settings: MTT
Method: PC3 prostate cancer cells were maintained in DMEM (Invitrogen™, Carlsebad, CA) supplemented with 10% FBS or Corning® Nu-serum™(BD™ Biosciences, Franklin Lakes, NJ) and 1% penicillin/streptomycin (Invitrogen™) in a humidified incubator and 5% CO2 at 37° C.
Exponentially growing cells were plated in 96-well dishes. Dose response curves were used to treat cells for 72 hours with inhibitors. Following the three-day treatment, cell viability was measured using the MTT (3-(4,5-dimethylthiazol-2-yl)-2,5-diphenyltetrazolium bromide) colorimetric assay. Cells were incubated for 3 hours with MTT allowing viable cells to metabolize the tetrazolium dye to a purple colored solution. Absorbance measurements (595 nm) were quantified using a DTX 880 plate reader and IC50 values were generated for FLIPs.

HOP-92 = experiment: Single dose cell viability assay, HOP-92; type: cell-based; settings: HOP-92 (NSCLC)
Method: as §1

NCI-H522 = experiment: Single dose cell viability assay, NCI-H522; type: cell-based; settings: NCI-H522 (NSCLC), single dose 25 μM
Method: as §1

SF-295 = experiment: Single dose cell viability assay, SF-295; type: cell-based; settings: SF-295 (CNS), single dose 25 μM
Method: as §1

UACC-62 = experiment: Single dose cell viability assay, UACC-62; type: cell-based; settings: UACC-62 (Melanoma), single dose 25 μM
Method: as §1

MDA-MB-468 = experiment: Single dose cell viability assay, MDA-MB-468; type: cell-based; settings: MDA-MB-468 (Breast), single dose 25 μM
Method: as §1

SK-MEL-5 = experiment: Single dose cell viability assay, SK-MEL-5; type: cell-based; settings: SK-MEL-5 (Melanoma), single dose 25 μM
Method: as §1

SK-MEL-2 = experiment: Single dose cell viability assay, SK-MEL-2; type: cell-based; settings: SK-MEL-2 (Melanoma), single dose 25 μM
Method: as §1

U251 = experiment: Single dose cell viability assay, U251; type: cell-based; settings: U251 (CNS), single dose 25 μM
Method: as §1

T1 sequence (P53350 whole entry): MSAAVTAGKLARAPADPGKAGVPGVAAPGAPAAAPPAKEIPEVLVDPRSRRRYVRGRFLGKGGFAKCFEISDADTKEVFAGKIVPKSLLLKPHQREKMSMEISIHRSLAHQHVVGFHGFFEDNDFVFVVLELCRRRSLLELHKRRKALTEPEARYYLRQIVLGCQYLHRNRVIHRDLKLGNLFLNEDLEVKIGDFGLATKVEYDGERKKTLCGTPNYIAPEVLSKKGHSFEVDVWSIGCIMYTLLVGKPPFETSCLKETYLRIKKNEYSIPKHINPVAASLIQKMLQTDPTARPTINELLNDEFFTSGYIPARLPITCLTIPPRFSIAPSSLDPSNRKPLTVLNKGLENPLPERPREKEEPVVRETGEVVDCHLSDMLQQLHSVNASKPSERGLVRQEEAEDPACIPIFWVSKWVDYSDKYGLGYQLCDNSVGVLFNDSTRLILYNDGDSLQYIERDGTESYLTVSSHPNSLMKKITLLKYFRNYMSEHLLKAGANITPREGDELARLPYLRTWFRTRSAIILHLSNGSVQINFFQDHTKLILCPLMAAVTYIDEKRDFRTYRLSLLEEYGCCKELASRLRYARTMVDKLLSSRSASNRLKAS

CC[C@@H]1C(=O)N(C)c2cnc(Nc3ccc(C(=O)N[C@H]4CC[C@H](N5CCN(CC6CC6)CC5)CC4)cc3OC)nc2N1C(C)C [volasertib, reference compound]
PLK1 thermal stability by CETSA (PLK1 [1]): decreased the stability of PLK1

CCCCCCCCc1cccc(CC(=O)Nc2ccc(C)cc2C(=O)O)c1 [compound 6277]
Cells Remaining (%) (MOLT-4): 17.93% | inhibition at 25 µM (LOX IMVI; Homo sapiens, LOX IMVI, from cells remaining): 96.4% | Cells Remaining (%) (LOX IMVI; LOX IMVI (Melanoma)): 3.4% | IC50 [2]: 5.25 ± 0.5 µM | IC50 (PLK3 PBD (335-646)): 29.4 µM | Cells Remaining (%) (CCRF-CEM): 26.74% | Cells Remaining (%) (RPMI-8226): 25.43% | Cells Remaining (%) (K-562): 28.94% | Cells Remaining (%) (A549/ATCC): 31.38% | IC50 (PLK1 PBD (367-603)): 19.7 µM | Cells Remaining (%) (HCT-15): 13.2% | PLK1 degradation (PLK1 [3]): degradation of PLK1 | Cells Remaining (%) (NCI-H460): 20.45% | Cells Remaining (%) (HCT-116): 28.14% | Cells Remaining (%) (SR): 31.08%

Cc1ccc(NC(=O)c2ccc(OCCCCCCCCCCCNC(=O)CCCC(=O)Nc3cccc4c3C(=O)N(C3CCC(=O)NC3=O)C4=O)cc2)c(C(=O)O)c1 (stereo not drawn) [compound 6329]
PLK1 degradation (PLK1 [4]): degradation of PLK1 | PLK1 degradation (PLK1 [5]): degradation of PLK1

CCCCCCCCc1ccc(C(=O)Nc2ccc(C(F)(F)F)cc2C(=O)O)cc1 [compound 6165]
IC50 ([6]; 72 h): 14.2 ± 2 µM | IC50 (PLK3 PBD (335-646)): 37.6 ± 5.7 µM | IC50 (PLK1 PBD (367-603)): 23.5 ± 4.9 µM

CCCCCCCOc1cccc(S(=O)(=O)Nc2ccc(C)cc2C(=O)O)c1 [compound 6355]
Cells Remaining (%) (HOP-92; single dose 25 μM): 57.02% | Cells Remaining (%) (NCI-H522): 65.09% | Cells Remaining (%) (CCRF-CEM): 67.09% | Cells Remaining (%) (SF-295): 59.2% | Cells Remaining (%) (RPMI-8226): 51.41% | Cells Remaining (%) (UACC-62): 61.59% | Cells Remaining (%) (MDA-MB-468): 55.12% | Cells Remaining (%) (HCT-15): 49.94% | Cells Remaining (%) (SK-MEL-5): 59.55% | Cells Remaining (%) (SK-MEL-2): 30.01% | Cells Remaining (%) (U251): 64.99%

CCCCCCCCc1ccc(C(=O)Nc2ccccc2P(=O)(O)O)cc1 [compound 6286]
IC50 ([6]; 72 h): 26.6 µM | IC50 ([6]; 72 hours): 25.1 µM | IC50 (PLK1 PBD (367-603)): 53 µM

CCCCCCCCc1ccc(C(=O)Nc2ccccc2CP(=O)(O)O)cc1 [compound 6184]
Cells Remaining (%) (HOP-92; single dose 10 μM): 43.86% | IC50 ([6]; 72 h): 9.2 µM | IC50 (PLK1 PBD (367-603)): 95.3 µM

CCCCCCCCc1cccc(C(=O)Nc2ccc(C)cc2C(=O)O)c1 [compound 6281]
IC50 (PLK1 PBD (367-603)): 19.5 µM
